Source: EP0651751B1, “FAMILY OF PORPHIN RING SUBSTANCES, METHOD OF OBTAINING THEM FROM CYANOPHYCEAE, AND APPLICATIONS AS COSMETICS AND AS THERAPEUTIC PRODUCTS” (GENERALE DE PREVENTION ET DE LOISIRS, priority 1992, dated 1994)

What was measured:
[1] = test system: collagène fibreux insoluble; test: Increase of the resistance of collagen to collagenase (agarose gel, diameter of hydrolysis zones); format: biochemical; settings: product in the gel at 0,025 %; collagénase pancréatique 10 mg/ml (3800 U/ml), 15 h at 37°C, Tris pH 8,8
Description: * Accroissement de la résistance du collagène aux effets de la collagénase : - Mise en évidence : On répartit dans quatre boîtes de Pétri de 8 cm de diamètre 20 ml d'une solution à 1 % d'agarose dans du tampon Tris pH 8,8, contenant en suspension 20 mg de collagène fibreux insoluble et 0, 0,1, 0,3 et 0,5 ml d'une solution à 5 % de produit à tester selon les boîtes, soient des concentrations de 0, 0,025 %, 0,075 %, 0,125 %. Comme la plupart des produits à tester ne sont pas solubles dans le tampon, on part d'une solution mère dans du diméthylsulfoxyde (DMSO). Cette répartition se fait à 45°C. Après solidification de l'agarose, on perfore 5 puits de 3 mm de diamètre dans le gel grâce à un emporte-pièce. Dans ces 5 puits, on place 50 µl d'une solution de collagénase pancréatique dans du tampon Tris pH 8,8 à une concentration de 10 mg/ml (3800 U/ml). Les boîtes de Pétri sont incubées 15 heures à 37°C, puis le gel est coloré par une solution à 0,25 % d'acide picrique à 0,25 % pendant 3 min, puis une solution de Rouge Sirius à 0,1 % pendant 5 min. L'excès de coloration est éliminé par lavage à l'eau. - Résultats :
(§1) On évalue l'action enzymatique en mesurant le diamètre des zones d'hydrolyse du collagène fibreux. Le groupe chlorophylle-chlorophyllide est le plus actif, ce qui suggère que la présence de magnésium dans la structure a une grande importance. * Effet d'inhibition de la collagénase : - Mise en évidence : On répartit dans quatre boîtes de Pétri de 8 cm de diamètre 20 ml d'une solution à 1 % d'agarose dans du tampon Tris pH 8,8, contenant en suspension 20 mg de collagène fibreux insoluble. Cette répartition se fait à 45°C. Après solidification de l'agarose, on perfore 5 puits de 3 mm de diamètre dans le gel grâce à un emporte-pièce. Dans ces 5 puits, on place 25 µl d'une solution de collagénase pancréatique dans du tampon Tris pH 8,8 à des concentrations de : 10 mg/ml (3800 U/ml) et 25 µl d'une solution de la substance à tester dans le même tampon à une concentration de 4 %, 3 %, 2 %, 1 % et 0 %. Comme la plupart des produits à doser ne sont pas solubles dans le tampon, on part d'une solution mère dans du diméthylsulfoxyde. Les boîtes de Pétri sont incubées 15 heures à 37°C, puis le gel est coloré par une solution à 0,25 % d'acide picrique à 0,25 % pendant 3 min, puis une solution de Rouge Sirius à 0,1 % pendant 5 min. L'excès de coloration est éliminé par lavage à l'eau. - Résultats : […]

collagénase pancréatique = test: Collagenase inhibition (agarose gel diffusion, enzyme and substance together in the well); format: biochemical; settings: 15 h at 37°C
Description: as §1

élastase pancréatique = élastase pancréatique (Sus scrofa, UniProt P00772); test: Pancreatic elastase inhibition on synthetic substrate N succinyl N ala-ala-ala-p nitroanilide; format: biochemical; settings: 0,5 ml of 0,1 % test solution in DMSO à 50 %, 3 ml total; pH 7,6; OD 410 nm over 3 min
Description: Dans ce test, les substances les plus performantes sont les mêmes que dans le test précédent (chlorophylle-chlorophyllide); de plus, ces substances présentent un effet de renforcement de la résistance du collagène contre les effets de la collagénase, alors que l'enzyme elle-même est peu atteinte par ces substances. * Inhibition de l'élastase pancréatique : - Mise en évidence : L'activité de l'élastase pancréatique est déterminée sur un substrat synthétique. On constate que les produits décrits ci-dessus ont un effet sur cette enzyme alors que le substrat est un dérivé de peptide de faible poids moléculaire : le N succinyl N ala-ala-ala-p nitroanilide. Solution substrat : solution du substrat ci-dessus à 1 % dans du tampon phosphate pH 7,6. Solution enzymatique : élastase pancréatique à (1000 U/ml) dans le tampon pH 7,6. Solvant DMSO à 50 % dans de l'eau distillée. Solution à tester : substance à tester en solution dans le solvant à 0,1 %. Dans un premier tube à essai (blanc), on place : • 2,2 ml de tampon pH 7,6 • 0,3 ml de solution enzymatique • 0,5 ml de solvant. Dans un deuxième tube à essai (essai), on place : • 1 ml de solution substrat • 1,2 ml de tampon pH 7,6 • 0,3 ml de solution enzymatique • 0,5 ml de solution à tester. Dans un troisième tube à essai, on place : • 1 ml de solution substrat • 1,2 ml de tampon pH 7,6 • 0,3 ml de solution enzymatique • 0,5 ml de solvant. On mesure la D.O. de la solution essai contre la solution blanc à 410 nm. On note la valeur toutes les 30 secondes pendant 3 minutes. On réalise la même mesure pour la solution témoin. L'activité de l'enzyme est définie par la vitesse d'augmentation de D.O. du témoin. L'activité de la solution inhibitrice à tester se définit comme une diminution relative de l'activité de l'enzyme. - Résultats : […]

[2] = test system: fibroblastes humains MRC5; test: Total protein synthesis by fibroblasts in culture (Coomassie blue, OD 595 nm); format: cell-based; settings: 100 µl per well, MRC5, 28th passage, medium sampled after 48, 72, 96 and 120 h (time not given); for activation at 50 µg/mL: Homo sapiens, read-out: augmentation de la synthèse protéique par rapport au témoin; for augmentation de la synthèse protéique par rapport au témoin: 50 µg/ml
Description: Dans ce test, qui est un test relatif à une inhibition enzymatique vraie, puisque le substrat est artificiel et de structure assez éloignée des substrats naturels de l'enzyme, on constate que les molécules les plus actives en tant qu'inhibiteurs, sont celles dépourvues de radical phytile; la présence du magnésium n'apparaît pas comme essentielle, pour cette fonction particulière, d'où l'intérêt de compositions comprenant plusieurs des substances actives définies ci-dessus. * Effet des substances décrites sur la synthèse des protéines totales par des fibroblastes en culture (restructuration) : - Mise en évidence : Une étude de cytotoxicité est réalisée au préalable pour déterminer les concentrations maximales de test des différentes substances concernées. Cellules utilisées : fibroblastes humains MRC5, au 28ème passage. Les cellules sont ensemencées sur une plaque à 96 puits à raison de 2.10^5 cellules par puits environ et mises en culture dans du milieu minimum de Eagle (MEM) additionné de 1 % de glutamine 200 mM, 1 % de solution de vitamines, 100 U/ml de pénicilline, 100 U/ml de streptomycine et 2 % de sérum de veau foetal. La solution à tester est ajoutée à raison de 100 µl par puits, à la concentration de 50 µg/ml. Les cellules sont incubées à 37°C sous 5 % d'atmosphères de CO2. On prélève le milieu de culture après 48, 72, 96 et 120 heures de culture. Les protéines totales synthétisées sont déterminées après coloration des surnageants par le bleu de Coomassie et mesure de la D.O. à 595 nm. L'augmentation de la synthèse protéique est mesurée par rapport au témoin (solvant de la substance à tester). - Résultats : […]

[3] = Antiradical effect, chemical method (DPPH, OD 519 nm); settings: 0,15 ml of 2 % solution in methanol; 25°C, 5 min; pH 7; toluene extraction
Description: Dans ce test, on constate une relative homogénéité des actions des différentes substances, contrairement aux tests précédents; ici, c'est donc la structure commune qui doit jouer le rôle principal dans cette action. - Mise en évidence par la méthode chimique : Réactif : 1,1-diphényl-2-picrylhydrazyle : 2,5 mg dans 100 ml de méthanol. Solvant des substances antiradicalaires : méthanol. Solution antiradicalaire : 2 % dans du méthanol. Ce produit est un radical libre stable pouvant être dégradé par des substances antiradicalaires. On réalise un blanc pour le témoin et un blanc pour l'essai : Blanc témoin : tampon phosphate pH 7 : 1,5 ml méthanol : 3 ml Témoin : solution réactif : 3 ml tampon phosphate pH 7 : 1,5 ml Blanc essai : tampon phosphate pH 7 : 1,35 ml méthanol : 3,15 ml Essai : solution réactif : 3 ml tampon phosphate pH 7 : 1,35 ml solution d'antiradicalaire : 0,15 ml. On agite à 25°C pendant 5 min. Puis on extrait par 4 ml de toluène pendant 30 secondes. On filtre sur un papier séparateur de phases et on lit la D.O. de la solution de toluène à 519 nm contre la solution de toluène obtenue pour le blanc correspondant. On calcule le pourcentage de réactif disparu. - Résultats : […]

[4] = 25 µl substance solution at 1 % with 25 µl collagénase 10 mg/ml in the well
[5] = 25 µl substance solution at 2 % with 25 µl collagénase 10 mg/ml in the well
[6] = 25 µl substance solution at 3 % with 25 µl collagénase 10 mg/ml in the well
[7] = 25 µl substance solution at 4 % with 25 µl collagénase 10 mg/ml in the well

Sequence of élastase pancréatique (P00772 27-266): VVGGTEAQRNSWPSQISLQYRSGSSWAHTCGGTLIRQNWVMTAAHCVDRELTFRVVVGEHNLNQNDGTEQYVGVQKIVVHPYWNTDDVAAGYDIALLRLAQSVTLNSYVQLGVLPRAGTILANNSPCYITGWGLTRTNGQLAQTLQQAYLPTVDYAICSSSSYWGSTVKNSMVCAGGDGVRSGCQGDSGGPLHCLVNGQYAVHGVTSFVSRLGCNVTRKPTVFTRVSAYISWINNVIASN

Accroissement de la résistance du collagène aux effets de la collagénase [1] [%] | Effet d'inhibition de la collagénase (collagénase pancréatique; [4]) [%] | Effet d'inhibition de la collagénase (collagénase pancréatique; [5]) [%] | Effet d'inhibition de la collagénase (collagénase pancréatique; [6]) [%] | Effet d'inhibition de la collagénase (collagénase pancréatique; [7]) [%] | Inhibition de l'élastase pancréatique (diminution relative de l'activité de l'enzyme) (élastase pancréatique) [%] | Molecule | activation at 50 µg/mL [2] [%] | pourcentage de réactif disparu (méthode chimique) [3] [%] | augmentation de la synthèse protéique par rapport au témoin [2] [%]
2 | 2 | 2 | 2 | 6 | 17 | C=CC1=C(C)c2cc3[nH]c(c(CCC(=O)O)c3C)c3c4nc(cc5[nH]c(cc1n2)c(C)c5CC)C(C)=C4C(=O)C3C(=O)OC (centres unmarked) [Phaéophorbide a, didéhydrophaéophorbide a] | 1 | 33 | –
0 | 0 | 0 | 0 | 2 | 9 | C=CC1=C(C)c2cc3[nH]c(c(CCC(=O)OCC=C(C)CCCC(C)CCCC(C)CCCC(C)C)c3C)c3c4nc(cc5[nH]c(cc1n2)c(C)c5CC)C(C)=C4C(=O)C3C(=O)OC (centres unmarked) [Phaéophytine a, didéhydrophaéophytine a] | 4 | 20 | –
5 | 2 | 3 | 3 | 4 | 12 | didéhydrochlorophylle a | – | 84 | 15
3 | 3 | 6 | 8 | 9 | 28 | didéhydrochlorophyllide a | – | 83 | 23
